Test results as given in the supplement of paper PMC10307832.

Key:
Assay in all cases: relative viability (nuclei count vs DMSO), 5 days (fraction); higher = more cells survive
ChaGo-K-1 = system: ChaGo-K-1
Method in brief: (§1)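 Nuclei were stained with Hoechst during a one-step fixation (final 0.05% Triton X-100, 1% formaldehyde, 1 ug/ml Hoechst) carried out 5 days after dosing, then counted on 4× images. The cells, lung cancer lines in 1536-well plates, had been dosed by pin tool the day after seeding with one drug alone or a fixed anchor-drug dose plus five library-drug doses (not always all listed) in √10 steps. Relative viability is the nuclei count in treated wells divided by that in vehicle wells, and each value is the median of duplicate plates.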

EKVX = system: EKVX
Method in brief: as §1

EPLC-272H = system: EPLC-272H
Method in brief: as §1

H3255 = system: H3255
Method in brief: as §1

HCC-827 = system: HCC-827
Method in brief: as §1

HOP-62 = system: HOP-62
Method in brief: as §1

LCLC-97TM1 = system: LCLC-97TM1
Method in brief: as §1

LK-2 = system: LK-2
Method in brief: as §1

LU99A = system: LU99A
Method in brief: as §1

LXF-289 = system: LXF-289
Method in brief: as §1

NCI-H1355 = system: NCI-H1355
Method in brief: as §1

NCI-H1650 = system: NCI-H1650
Method in brief: as §1

NCI-H1993 = system: NCI-H1993
Method in brief: as §1

NCI-H2170 = system: NCI-H2170
Method in brief: as §1

NCI-H2228 = system: NCI-H2228
Method in brief: as §1

NCI-H2405 = system: NCI-H2405
Method in brief: as §1

NCI-H3122 = system: NCI-H3122
Method in brief: as §1

NCI-H441 = system: NCI-H441
Method in brief: as §1

NCI-H522 = system: NCI-H522
Method in brief: as §1

PC-3 [JPC-3] = system: PC-3 [JPC-3]
Method in brief: as §1

SK-LU-1 = system: SK-LU-1
Method in brief: as §1

SW 1573 = system: SW 1573
Method in brief: as §1

UMC-11 = system: UMC-11
Method in brief: as §1

`Cc1cn(-c2cc(NC(=O)c3ccc(C)c(Nc4nccc(-c5cccnc5)n4)c3)cc(C(F)(F)F)c2)cn1` [Nilotinib] + O=C(c1cc(Cc2n[nH]c(=O)c3ccccc23)ccc1F)N1CCN(C(=O)C2CC2)CC1 [Olaparib] (partner 8 µM) gave a relative viability (ChaGo-K-1; first compound 0.001 µM) of 0.419, a relative viability (ChaGo-K-1; first compound 0.003162 µM) of 0.476 and a relative viability (ChaGo-K-1; first compound 0.01 µM) of 0.478. The relative viability (ChaGo-K-1; first compound 0.03162 µM) was 0.464, the relative viability (ChaGo-K-1; first compound 0.1 µM) was 0.412 and the relative viability (EKVX; first compound 0.001 µM) was 0.735. It also gave a relative viability (EKVX; first compound 0.003162 µM) of 1.08, a relative viability (EKVX; first compound 0.01 µM) of 1.23 and a relative viability (EKVX; first compound 0.03162 µM) of 0.834. For the same compound, the relative viability (EKVX; first compound 0.1 µM) was 1.07, the relative viability (EPLC-272H; first compound 0.001 µM) was 0.605 and the relative viability (EPLC-272H; first compound 0.003162 µM) was 0.746. The relative viability (EPLC-272H; first compound 0.01 µM) was 0.696, the relative viability (EPLC-272H; first compound 0.03162 µM) was 0.448 and the relative viability (EPLC-272H; first compound 0.1 µM) was 0.513. The relative viability (H3255; first compound 0.001 µM) was 0.533, the relative viability (H3255; first compound 0.003162 µM) was 0.561 and the relative viability (H3255; first compound 0.01 µM) was 0.572. For the same compound, the relative viability (H3255; first compound 0.03162 µM) was 0.474, the relative viability (H3255; first compound 0.1 µM) was 0.501 and the relative viability (HCC-827; first compound 0.001 µM) was 0.637. For the same compound, the relative viability (HCC-827; first compound 0.003162 µM) was 0.741, the relative viability (HCC-827; first compound 0.03162 µM) was 0.49 and the relative viability (HCC-827; first compound 0.1 µM) was 0.689. For the same compound, the relative viability (HOP-62; first compound 0.003162 µM) was 0.38, the relative viability (HOP-62; first compound 0.01 µM) was 0.393 and the relative viability (HOP-62; first compound 0.03162 µM) was 0.403. For the same compound, the relative viability (HOP-62; first compound 0.1 µM) was 0.352, the relative viability (LCLC-97TM1; first compound 0.001 µM) was 0.339 and the relative viability (LCLC-97TM1; first compound 0.003162 µM) was 0.467. For the same compound, the relative viability (LCLC-97TM1; first compound 0.01 µM) was 0.461, the relative viability (LCLC-97TM1; first compound 0.03162 µM) was 0.446 and the relative viability (LCLC-97TM1; first compound 0.1 µM) was 0.343. The relative viability (LK-2; first compound 0.001 µM) was 0.673, the relative viability (LK-2; first compound 0.003162 µM) was 0.947 and the relative viability (LK-2; first compound 0.01 µM) was 0.839. The relative viability (LK-2; first compound 0.03162 µM) was 0.453, the relative viability (LK-2; first compound 0.1 µM) was 0.681 and the relative viability (LU99A; first compound 0.001 µM) was 0.2. For the same compound, the relative viability (LU99A; first compound 0.003162 µM) was 0.201, the relative viability (LU99A; first compound 0.03162 µM) was 0.221 and the relative viability (LU99A; first compound 0.1 µM) was 0.164. For the same compound, the relative viability (LXF-289; first compound 0.001 µM) was 1.07, the relative viability (LXF-289; first compound 0.003162 µM) was 1.37 and the relative viability (LXF-289; first compound 0.01 µM) was 1.26. It also gave a relative viability (LXF-289; first compound 0.03162 µM) of 1, a relative viability (LXF-289; first compound 0.1 µM) of 1.06 and a relative viability (NCI-H1355; first compound 0.001 µM) of 0.748. The relative viability (NCI-H1355; first compound 0.003162 µM) was 0.816, the relative viability (NCI-H1355; first compound 0.01 µM) was 0.737 and the relative viability (NCI-H1355; first compound 0.03162 µM) was 0.785. It also gave a relative viability (NCI-H1355; first compound 0.1 µM) of 0.763, a relative viability (NCI-H1650; first compound 0.001 µM) of 0.776 and a relative viability (NCI-H1650; first compound 0.003162 µM) of 0.948. It also gave a relative viability (NCI-H1650; first compound 0.01 µM) of 0.777, a relative viability (NCI-H1650; first compound 0.03162 µM) of 0.756 and a relative viability (NCI-H1650; first compound 0.1 µM) of 1.08. The relative viability (NCI-H1993; first compound 0.001 µM) was 0.957, the relative viability (NCI-H1993; first compound 0.003162 µM) was 1.1 and the relative viability (NCI-H1993; first compound 0.01 µM) was 1.75. For the same compound, the relative viability (NCI-H1993; first compound 0.03162 µM) was 1.01, the relative viability (NCI-H1993; first compound 0.1 µM) was 1.23 and the relative viability (NCI-H2170; first compound 0.001 µM) was 0.597. It also gave a relative viability (NCI-H2170; first compound 0.003162 µM) of 0.662, a relative viability (NCI-H2170; first compound 0.01 µM) of 0.647 and a relative viability (NCI-H2170; first compound 0.03162 µM) of 0.574. The relative viability (NCI-H2170; first compound 0.1 µM) was 0.614, the relative viability (NCI-H2228; first compound 0.001 µM) was 0.459 and the relative viability (NCI-H2228; first compound 0.003162 µM) was 0.584. For the same compound, the relative viability (NCI-H2228; first compound 0.01 µM) was 0.76, the relative viability (NCI-H2228; first compound 0.03162 µM) was 0.384 and the relative viability (NCI-H2228; first compound 0.1 µM) was 0.835. For the same compound, the relative viability (NCI-H2405; first compound 0.001 µM) was 0.837, the relative viability (NCI-H2405; first compound 0.003162 µM) was 0.878 and the relative viability (NCI-H2405; first compound 0.01 µM) was 0.858. The relative viability (NCI-H2405; first compound 0.03162 µM) was 0.728, the relative viability (NCI-H2405; first compound 0.1 µM) was 0.629 and the relative viability (NCI-H3122; first compound 0.001 µM) was 0.591. It also gave a relative viability (NCI-H3122; first compound 0.003162 µM) of 0.688, a relative viability (NCI-H3122; first compound 0.01 µM) of 0.848 and a relative viability (NCI-H3122; first compound 0.03162 µM) of 0.515. It also gave a relative viability (NCI-H3122; first compound 0.1 µM) of 0.721, a relative viability (NCI-H441; first compound 0.001 µM) of 0.419 and a relative viability (NCI-H441; first compound 0.003162 µM) of 0.807. The relative viability (NCI-H441; first compound 0.01 µM) was 0.533, the relative viability (NCI-H441; first compound 0.03162 µM) was 0.431 and the relative viability (NCI-H441; first compound 0.1 µM) was 0.534. For the same compound, the relative viability (NCI-H522; first compound 0.01 µM) was 0.66, the relative viability (NCI-H522; first compound 0.03162 µM) was 0.625 and the relative viability (NCI-H522; first compound 0.1 µM) was 0.565. It also gave a relative viability (PC-3 [JPC-3]; first compound 0.001 µM) of 1.05, a relative viability (PC-3 [JPC-3]; first compound 0.01 µM) of 1.35 and a relative viability (PC-3 [JPC-3]; first compound 0.03162 µM) of 1.16. The relative viability (PC-3 [JPC-3]; first compound 0.1 µM) was 0.829, the relative viability (SK-LU-1; first compound 0.001 µM) was 0.408 and the relative viability (SK-LU-1; first compound 0.003162 µM) was 0.469. For the same compound, the relative viability (SK-LU-1; first compound 0.01 µM) was 0.541, the relative viability (SK-LU-1; first compound 0.03162 µM) was 0.354 and the relative viability (SK-LU-1; first compound 0.1 µM) was 0.444. It also gave a relative viability (SW 1573; first compound 0.001 µM) of 0.494, a relative viability (SW 1573; first compound 0.003162 µM) of 0.614 and a relative viability (SW 1573; first compound 0.01 µM) of 0.662. It also gave a relative viability (SW 1573; first compound 0.03162 µM) of 0.364, a relative viability (SW 1573; first compound 0.1 µM) of 0.423 and a relative viability (UMC-11; first compound 0.001 µM) of 0.39. The relative viability (UMC-11; first compound 0.003162 µM) was 0.384, the relative viability (UMC-11; first compound 0.01 µM) was 0.337 and the relative viability (UMC-11; first compound 0.03162 µM) was 0.341. It also gave a relative viability (UMC-11; first compound 0.1 µM) of 0.279.
